Values after ≈ are worked out from the molar mass of the structure shown.

Series [1] can be described thus: Inhibition of HCV 1b NS5B RNA dependent RNA polymerase by scintillation proximity assay. The arrangement: species or system Hepacivirus hominis. For orientation: Scintillation proximity formats need no separation of bound from free tracer.
In series [2] the test system is Hepatitis C virus. Kind of series: Antiviral activity against Hepatitis C virus genotype 1b infected in human Huh-7 cells assessed as inhibition of viral replication after 72 hrs. As to conditions: Huh-7, 72 h. It counts as functional, organism-based, Hepacivirus hominis.
The nature of series [3]: Half life in human liver microsomes at 10 uM. (In general: Liver microsomes are vesicles of endoplasmic reticulum, rich in cytochrome P450 enzymes.)
Series [4] can be described thus: Permeability across apical to basolateral side in human Caco2 cells. The following applies: Caco-2. (Passage across Caco-2 layers is used to estimate intestinal permeability.)
Series [5] can be described thus: Half life in rat liver microsomes at 10 uM. It counts as ADME, Microsome.
A short description of series [6]: Cmax in overnight-fasted Sprague-Dawley rat at 10, mg/kg, po administered by oral gavage. Format: ADME, organism-based. As to conditions: in vivo.
Series [7] in a line: Selectivity ratio for polio virus RNA-dependent RNA polymerase to HCV 1b NS5B RNA dependent RNA polymerase.
Series [8] can be described thus: Selectivity ratio for mammalian DNA-dependent RNA polymerase II to HCV 1b NS5B RNA dependent RNA polymerase.
Series [9] is described as follows: physchem. The following applies: phosphate buffer, pH 7.2.
Series [10] in a line: Tmax in overnight-fasted Sprague-Dawley rat at 10, mg/kg, po administered by oral gavage. Format: ADME, organism-based. The following applies: in vivo.
A short description of series [11]: AUC in overnight-fasted Sprague-Dawley rat at 10, mg/kg, po administered by oral gavage. The following applies: plasma. Format: ADME, organism-based.
Series [12] is described as follows: Mean retention time in overnight-fasted Sprague-Dawley rat at 10, mg/kg, po administered by oral gavage. As to conditions: in vivo. It counts as ADME, organism-based.

A word on the IC50: it is the concentration at which inhibition is half-maximal. Lower therefore signals greater potency. As usually defined, the EC50 is the midpoint of the concentration-response curve. What is called half-life is the time needed for the level to fall by half in the phase considered. A low value points to rapid decline. In general, Papp A→B refers to the apparent permeability from the apical to the basolateral side of a cell layer. The term Cmax denotes the maximum level reached in the sampled fluid or tissue. One may read the solubility (thermodynamic) as the concentration in solution at equilibrium with solid. `CN1CCC(NC(=O)c2ccc3c(C4CCCCC4)c(-c4ccccn4)n(C)c3c2)(C(=O)Nc2ccc(/C=C/C(=O)O)cc2)CC1`: the IC50 in series [1] is 10 nM. For the same molecule, the EC50 in series [2] came out at 60 nM. In addition, the half-life at 10 µM in series [3] (liver microsomes) was 148 min; in [5], 34 min. Besides, the Papp A→B in [4] worked out at 0.6 ×10⁻⁶ cm/s. This molecule also gave a Cmax in series [6] of under 100 nM. The Ratio in series [7] and in series [8] was over 150 in each case. In addition, in series [9], the solubility (thermodynamic) at 24 h stood at 22 µg/mL (≈ 35.5 µM).

`Cn1c(-c2ccccn2)c(C2CCCCC2)c2ccc(C(=O)N[C@@]3(C(=O)Nc4ccc(/C=C/C(=O)O)cc4)CCCNC3)cc21` registered an IC50 in series [1] of 11 nM. In addition, the EC50 in series [2] was 20 nM. Moreover, the values for the half-life at 10 µM in series [3] (liver microsomes) and in series [5] were 84 min and 17 min, respectively. The same molecule returned an apical-to-basolateral permeability (Papp A→B) in series [4] of 0.6 ×10⁻⁶ cm/s. The same molecule gave a Cmax in series [6] of under 100 nM. Moreover, the Ratio in [7] and in series [8] was over 150 throughout. Besides, in series [9], the thermodynamic solubility at 24 h is 22 µg/mL (≈ 36.3 µM).

On to `CC(=O)N1CCCC(NC(=O)c2ccc3c(C4CCCCC4)c(-c4ccccn4)n(C)c3c2)(C(=O)Nc2ccc(/C=C/C(=O)O)cc2)C1` (racemic), for which, in series [1], the half-maximal inhibitory concentration (IC50) amounted to 230 nM. Besides, in series [2], the concentration giving a half-maximal response (EC50) amounted to 230 nM. This molecule also registered a half-life at 10 µM in [3] (liver microsomes) of 256 min. This molecule also yielded an apparent permeability from apical to basolateral (Papp A→B) in [4] of 5.5 ×10⁻⁶ cm/s. The Ratio in series [7] and in series [8] was over 150 in each case. In addition, the solubility (thermodynamic) at 24 h in series [9] is 24 µg/mL (≈ 37 µM).

A word on the Tmax: it is the time from dosing to the highest level. One may read the AUC as concentration integrated over time. A lower AUC goes with low exposure. Broadly, the MRT is a mean duration of stay, worked out from the concentration-time curve. In turn, `Cn1c(-c2ccccn2)c(C2CCCCC2)c2ccc(C(=O)NC(C)(C)C(=O)Nc3ccc(CCC(=O)O)cc3)cc21` returned a half-inhibitory concentration (IC50) in series [1] of 132 nM. The concentration for a half-maximal effect (EC50) in [2] is 267 nM. This molecule registered a half-life at 10 µM in [3] (liver microsomes) of 63 min. In [4], this molecule displayed an apparent permeability from apical to basolateral (Papp A→B) of 12.7 ×10⁻⁶ cm/s. The Cmax in [6] is 630 nM. The Tmax in series [10] is 30 min. Also, the exposure (AUC) in series [11] was 0.81 µM·h. Moreover, the Ratio in [7] and in series [8] was over 150 in each case. The molecule further came in with an MRT in series [12] of 102 min. The solubility (thermodynamic) at 24 h in series [9] amounted to 244 µg/mL (≈ 431 µM).

In series [1], `Cn1c(-c2ccccn2)c(C2CCCCC2)c2ccc(C(=O)NC3(C(=O)Nc4ccc(/C=C/C(=O)O)cc4)CCC3)cc21` gave a half-maximal inhibitory concentration (IC50) of 52 nM. Also, the EC50 in [2] amounted to 43 nM. Moreover, the half-life at 10 µM is 50 min in series [3] (microsomes) and 17 min in [5]. In addition, in [4], the apparent permeability from apical to basolateral (Papp A→B) amounted to 39 ×10⁻⁶ cm/s. Also, the Cmax in series [6] was determined as 290 nM. In addition, the time of peak concentration (Tmax) in series [10] is 30 min. In series [11], this molecule yielded an AUC of 0.35 µM·h. Also, the Ratio in series [7] and in series [8] was over 150 throughout. The thermodynamic solubility at 24 h in series [9] turned out to be 6 µg/mL (≈ 10.4 µM).

With `Cc1c(C(=O)O)sc2ccc(NC(=O)C3(NC(=O)c4ccc5c(C6CCCCC6)c(-c6ccccn6)n(C)c5c4)CCN(C)CC3)cc12`, the IC50 in [1] worked out at 27 nM. Further, the EC50 in series [2] turned out to be 58 nM. Also, the half-life at 10 µM in series [3] (liver microsomes) was found to be 185 min. The molecule also showed a Papp A→B in [4] of 0.8 ×10⁻⁶ cm/s. For the same molecule, the Ratio in series [7] and in series [8] was over 150 each time. Also, the solubility (thermodynamic) at 24 h in series [9] is 1 µg/mL (≈ 1.51 µM).

`Cc1c(C(=O)O)sc2ccc(NC(=O)C(C)(C)NC(=O)c3ccc4c(C5CCCCC5)c(-c5ccccn5)n(C)c4c3)cc12` came in with a half-inhibitory concentration (IC50) in series [1] of 35 nM. For the same molecule, the concentration for a half-maximal effect (EC50) in series [2] amounted to 46 nM. Moreover, the half-life at 10 µM in series [3] (liver microsomes) was determined as 34 min. The apical-to-basolateral permeability (Papp A→B) in series [4] is 0.8 ×10⁻⁶ cm/s. The Ratio in series [7] and in series [8] was over 150 each time. Moreover, the thermodynamic solubility at 24 h in [9] came out at 202 µg/mL (≈ 332 µM).

As to `Cn1c(-c2ccccn2)c(C2CCCCC2)c2ccc(C(=O)NC(C)(C)C(=O)Nc3ccc(/C=C/C(=O)O)cc3)cc21`, the Tmax in series [10] was 15 min.

`Cn1c(-c2ccccn2)c(C2CCCCC2)c2ccc(C(=O)NC3(C(=O)Nc4ccc(C(=O)O)cc4)CCC3)cc21` registered an IC50 in series [1] of 93 nM. Besides, the EC50 in series [2] stood at 110 nM. Further, the half-life at 10 µM in [3] (microsomes) worked out at 21 min; in series [5], 9 min. This molecule also came in with an apparent permeability from apical to basolateral (Papp A→B) in series [4] of 9.7 ×10⁻⁶ cm/s. The same molecule yielded a Cmax in [6] of 500 nM. For the same molecule, the Ratio in [7] and in [8] was over 150 each time. This molecule showed a solubility (thermodynamic) at 24 h in series [9] of 336 µg/mL (≈ 610 µM).

In the case of `CN1CC[C@@](NC(=O)c2ccc3c(C4CCCCC4)c(-c4ccccn4)n(C)c3c2)(C(=O)Nc2ccc(/C=C/C(=O)O)cc2)C1`, 21 nM corresponded to half-maximal inhibition in series [1] (IC50). Moreover, the EC50 in series [2] worked out at 34 nM. The half-life at 10 µM in series [3] (microsomes) is 456 min; in [5], 18 min. The molecule also showed an apical-to-basolateral permeability (Papp A→B) in series [4] of 8.1 ×10⁻⁶ cm/s. The Cmax in series [6] is 320 nM. Moreover, the time to peak (Tmax) in series [10] is 30 min. Further, in series [11], the AUC was determined as 0.81 µM·h. Besides, the Ratio in series [7] and in [8] was over 150 throughout. In addition, the MRT in series [12] came out at 228 min. This molecule also returned a thermodynamic solubility at 24 h in series [9] of 15 µg/mL (≈ 24.8 µM).

The values are drawn from ChEMBL document CHEMBL1777782, “Indole 5-carboxamide Thumb Pocket I inhibitors of HCV NS5B polymerase with nanomolar potency in cell-based subgenomic replicons (part 2): central amino acid linker and right-hand-side SAR studies” (Bioorg Med Chem Lett, 2011).
